What is called IC50 is the concentration needed to halve the response being measured. A higher IC50 goes with lower potency.

This passage reports IC50 results from BindingDB's records for doi:10.1016/j.bmc.2005.09.055 (Uk Centre For Cancer Therapeutics, 2006).

Assay [1] deals with RAC-beta serine/threonine-protein kinase (Homo sapiens, UniProt P31751). As to the kind of experiment: PKB In Vitro Enzyme Assay.
For assay [2], the target named is cAMP-dependent protein kinase catalytic subunit alpha (Bos taurus, UniProt P00517). The assay is described as follows: PKA In Vitro Enzyme Assay.

RAC-beta serine/threonine-protein kinase, sequence (P31751 whole entry): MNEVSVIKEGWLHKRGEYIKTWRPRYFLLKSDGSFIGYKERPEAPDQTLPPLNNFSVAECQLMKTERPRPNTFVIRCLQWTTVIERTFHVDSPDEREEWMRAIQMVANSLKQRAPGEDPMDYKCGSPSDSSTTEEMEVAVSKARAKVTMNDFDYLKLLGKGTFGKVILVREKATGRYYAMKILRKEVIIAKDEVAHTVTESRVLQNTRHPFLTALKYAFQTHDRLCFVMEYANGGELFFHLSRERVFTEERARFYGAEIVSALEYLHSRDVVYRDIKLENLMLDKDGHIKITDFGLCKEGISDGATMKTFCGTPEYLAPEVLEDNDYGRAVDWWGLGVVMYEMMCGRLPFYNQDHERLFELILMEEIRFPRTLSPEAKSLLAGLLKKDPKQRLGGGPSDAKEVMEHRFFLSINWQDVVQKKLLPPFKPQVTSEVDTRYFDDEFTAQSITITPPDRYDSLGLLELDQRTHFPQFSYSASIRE

Turning to `O=S(=O)(NCCNCCOCc1ccc(Cl)c(Cl)c1)c1cccc2cnccc12` [Isoquinoline-5-sulfonic acid (2-(2-(3,4-dichlorobenzyloxy)ethylamino)ethyl)amide], the half-inhibitory concentration (IC50) in assay [1] (pH 7.2, 22 °C) is 210 nM.

Take `O=S(=O)(NCCNCCOCc1cccc(Cl)c1)c1cccc2cnccc12` [Isoquinoline-5-sulfonic acid (2-(2-(3-chlorobenzyloxy)ethylamino)ethyl)amide]: the IC50 worked out at 370 nM in assay [1] (pH 7.2, 22 °C) and 410 nM in assay [2] (pH 7.2, 22 °C).

The compound `COc1cccc(COCCNCCNS(=O)(=O)c2cccc3cnccc23)c1` [Isoquinoline-5-sulfonic acid (2-(2-(3-methoxybenzyloxy)ethylamino)ethyl)amide] showed an IC50 in assay [1] (pH 7.2, 22 °C) of 2200 nM.

For `Cc1ccc(COCCNCCNS(=O)(=O)c2cccc3cnccc23)cc1` [Isoquinoline-5-sulfonic acid (2-(2-(4-methylbenzyloxy)ethylamino)ethyl)amide], half-maximal inhibition in assay [1] (pH 7.2, 22 °C) (IC50) was put at 1530 nM.

In assay [1], `O=S(=O)(NC[C@H]1CC[C@@H](COCc2ccc(Cl)cc2)N1)c1cccc2cnccc12` [Isoquinoline-5-sulfonic acid (2R*,5S*)-(5-(4-chlorobenzyloxymethyl)pyrrolidin-2-yl-methyl)amide] yielded an IC50 of 1700 nM. That is a single-digit micromolar value.

Regarding `O=S(=O)(NC[C@@H]1C[C@@H](OCc2ccc(Cl)cc2)CN1)c1cccc2cnccc12` [Isoquinoline-5-sulfonic acid (2S,4R)-(4-(4-chlorobenzyloxy)pyrrolidin-2-yl-methyl)amide], the figures for the 50% inhibitory concentration (IC50) in assay [1] and in assay [2] were 1700 nM and 400 nM, respectively.

Compound `O=S(=O)(NC[C@@H]1C[C@H](OCc2ccccc2)CN1)c1cccc2cnccc12` [Isoquinoline-5-sulfonic acid (2S,4S)-(4-(benzyloxy)pyrrolidin-2-yl-methyl)amide] gave an IC50 in assay [1] of 3400 nM. That is a single-digit micromolar value.

`O=S(=O)(NCC1CCNCC1)c1cccc2cnccc12` [Isoquinoline-5-sulfonic acid (piperidin-4-ylmethyl)amide] displayed an IC50 in assay [1] of 57000 nM.

In turn, `O=S(=O)(c1cccc2cnccc12)N1CCNCC1` [Isoquinoline-5-sulfonic acid piperazin-1 ylamide] returned an IC50 in assay [1] (pH 7.2, 22 °C) of 23000 nM.

`O=S(=O)(NC1CCNC1)c1cccc2cnccc12` (stereo unspecified) [Isoquinoline-5-sulfonic acid pyrrolidin-3-ylamide] gave a concentration for half-maximal inhibition (IC50) in assay [1] of 3900 nM. That is a single-digit micromolar value.

On to `N[C@H]1CC[C@H](NS(=O)(=O)c2cccc3cnccc23)CC1` [Isoquinoline-5-sulfonic acid trans-(4-aminocyclohexyl)amide], for which the IC50 turned out to be 8100 nM in assay [1] and 5700 nM in assay [2].

In assay [1] (pH 7.2, 22 °C), `O=S(=O)(NCCNCCOCc1ccccc1)c1cccc2cnccc12` [N-(2-{[2-(benzyloxy)ethyl]amino}ethyl)isoquinoline-5-sulfonamide] showed an IC50 of 1170 nM.

The compound `NCCCNS(=O)(=O)c1cccc2cnccc12` [N-(3-aminopropyl)isoquinoline-5-sulfonamide] registered an IC50 in assay [1] (pH 7.2, 22 °C) of 4800 nM.

With `O=S(=O)(NC1CCNCC1)c1cccc2cnccc12` [N-(piperidin-4-yl)isoquinoline-5-sulfonamide], the 50% inhibitory concentration (IC50) in assay [1] (pH 7.2, 22 °C) was found to be 8700 nM; in assay [2] (pH 7.2, 22 °C), 3900 nM.

The compound `CNCCNS(=O)(=O)c1cccc2cnccc12` [N-[2-(methylamino)ethyl]isoquinoline-5-sulfonamide] gave an IC50 in assay [1] of 7600 nM.

As for `O=S(=O)(NCCNCCOCc1ccccc1Cl)c1cccc2cnccc12` [N-[2-({2-[(2-chlorophenyl)methoxy]ethyl}amino)ethyl]isoquinoline-5-sulfonamide], the concentration for half-maximal inhibition (IC50) in assay [1] (pH 7.2, 22 °C) amounted to 960 nM; in assay [2] (pH 7.2, 22 °C), 1000 nM.

In the case of `COc1ccccc1COCCNCCNS(=O)(=O)c1cccc2cnccc12` [N-[2-({2-[(2-methoxyphenyl)methoxy]ethyl}amino)ethyl]isoquinoline-5-sulfonamide], the 50% inhibitory concentration (IC50) in assay [1] (pH 7.2, 22 °C) is 6600 nM.

`Cc1ccccc1COCCNCCNS(=O)(=O)c1cccc2cnccc12` [N-[2-({2-[(2-methylphenyl)methoxy]ethyl}amino)ethyl]isoquinoline-5-sulfonamide] displayed an IC50 in assay [1] (pH 7.2, 22 °C) of 570 nM. Against the preceding compound, the IC50 is about 12-fold lower.

Turning to `Cc1cccc(COCCNCCNS(=O)(=O)c2cccc3cnccc23)c1` [N-[2-({2-[(3-methylphenyl)methoxy]ethyl}amino)ethyl]isoquinoline-5-sulfonamide], the midpoint of inhibition in assay [1] (pH 7.2, 22 °C), the IC50, lay at 1100 nM.

`COc1ccc(COCCNCCNS(=O)(=O)c2cccc3cnccc23)cc1` [N-[2-({2-[(4-methoxyphenyl)methoxy]ethyl}amino)ethyl]isoquinoline-5-sulfonamide] displayed a half-inhibitory concentration (IC50) in assay [1] (pH 7.2, 22 °C) of 2900 nM. This IC50 lies about 2.6-fold higher than the previous one.

In assay [1], `O=S(=O)(N[C@H]1CC[C@H](NCc2ccccc2)CC1)c1cccc2cnccc12` [N-[4-(benzylamino)cyclohexyl]isoquinoline-5-sulfonamide] displayed an IC50 of 6600 nM.

Consider `O=S(=O)(NC[C@@H]1CCCN1)c1cccc2cnccc12` [N-[(2S)-pyrrolidin-2-ylmethyl]isoquinoline-5-sulfonamide], for which half-maximal inhibition in assay [1] (IC50) required 39000 nM.

As to `O=S(=O)(N[C@H]1CN[C@H](COCc2ccc(Cl)cc2)C1)c1cccc2cnccc12` [N-[(3R,5S)-5-{[(4-chlorophenyl)methoxy]methyl}pyrrolidin-3-yl]isoquinoline-5-sulfonamide], in assay [1], half-maximal inhibition (IC50) was put at 5200 nM.

In the case of `O=c1[nH]ccc2c(S(=O)(=O)N[C@@H]3CN[C@H](COCc4ccc(Cl)cc4)C3)cccc12` [N-[(3S,5S)-5-{[(4-chlorophenyl)methoxy]methyl}pyrrolidin-3-yl]-1-hydroxyisoquinoline-5-sulfonamide], the results for the IC50 in assay [1] and in assay [2] were 520 nM and 1300 nM, respectively.

In the case of `Cc1cncc2cccc(S(=O)(=O)N[C@@H]3CN[C@H](COCc4ccc(Cl)cc4)C3)c12` [N-[(3S,5S)-5-{[(4-chlorophenyl)methoxy]methyl}pyrrolidin-3-yl]-4-methylisoquinoline-5-sulfonamide], the IC50 in assay [1] is 2600 nM; in assay [2], 320 nM.

In the case of `O=S(=O)(N[C@@H]1CN[C@H](COCc2ccc(Cl)cc2)C1)c1cccc2cnccc12` [N-[(3S,5S)-5-{[(4-chlorophenyl)methoxy]methyl}pyrrolidin-3-yl]isoquinoline-5-sulfonamide], the half-inhibitory concentration (IC50) in assay [1] turned out to be 780 nM; in assay [2], 420 nM.

As to `O=S(=O)(NC[C@@H]1C[C@H](OCc2ccc(Cl)cc2)CN1)c1cccc2cnccc12` [N-{[(2S,4S)-4-[(4-chlorophenyl)methoxy]pyrrolidin-2-yl]methyl}isoquinoline-5-sulfonamide], the half-inhibitory concentration (IC50) stood at 480 nM in assay [1] and 170 nM in assay [2].
